Test results: PubChem BioAssay (NCI)
Where “and” joins values, the source holds several entries; their conditions need not be identical. Identical values can stand only once.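 Cells were grown in 96-well plates and exposed to each compound for 48 hours at five concentrations; endpoints were interpolated linearly between bracketing concentrations, or set to the highest concentration if not reached. GI50 is the concentration that inhibits growth by half. TGI: concentration producing complete growth inhibition.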

Assays:
Experiment in all cases: growth of human tumour cells (NCI), 48 h
MALME-3M melanoma = test system: MALME-3M melanoma
A549 NSCLC = test system: A549 NSCLC
TK-10 renal = test system: TK-10 renal
HCC-2998 colon = test system: HCC-2998 colon
DU-145 prostate = test system: DU-145 prostate
SR leukemia = test system: SR leukemia
NCI-H226 lung = test system: NCI-H226 lung
OVCAR-8 ovarian = test system: OVCAR-8 ovarian
LOX IMVI melanoma = test system: LOX IMVI melanoma
KM12 colon = test system: KM12 colon

SMILES	GI50 (MALME-3M melanoma)	TGI (MALME-3M melanoma)	GI50 (A549 NSCLC)	TGI (A549 NSCLC)	GI50 (TK-10 renal)	TGI (TK-10 renal)	GI50 (HCC-2998 colon)	TGI (HCC-2998 colon)	GI50 (DU-145 prostate)	TGI (DU-145 prostate)	GI50 (SR leukemia)	TGI (SR leukemia)	GI50 (NCI-H226 lung)	TGI (NCI-H226 lung)	GI50 (OVCAR-8 ovarian)	TGI (OVCAR-8 ovarian)	GI50 (LOX IMVI melanoma)	TGI (LOX IMVI melanoma)	GI50 (KM12 colon)	TGI (KM12 colon)
Cc1ccc(NC(=O)/C=C/c2ccccc2)c(C(N)=O)c1	5.99 µM	> 100 µM	5.28 µM	> 100 µM	17.1 µM	> 100 µM	5.38 µM	42.5 µM	3.81 µM	> 41.9 µM	0.881 µM	20.1 µM	6.46 µM	> 100 µM	7.38 µM	> 100 µM	7.87 µM	> 100 µM	2.44 µM	35.5 µM
Cc1ccc(C(=O)Nc2cccc(C(F)(F)F)c2)cc1Nc1nc(-c2cccnc2)nc2c1cnn2C	0.482 µM and 0.262 µM	2.77 µM and 1.5 µM	3.2 µM and 2.11 µM	16.1 µM and > 10 µM	5.9 µM and 2.1 µM	36.6 µM and 6.42 µM	1.11 µM and 0.632 µM	3.35 µM and 2.62 µM	5.5 µM and 3.09 µM	26.7 µM and > 10 µM	0.822 µM	6.58 µM	2.3 µM and 1.63 µM	7.45 µM and 5.64 µM	3 µM and 2.34 µM	39.7 µM and > 10 µM	1.4 µM and 0.704 µM	3.72 µM and 2.61 µM	2.62 µM and 0.686 µM	17.2 µM and 8.28 µM
CC(=O)NC1=C(OS(=O)(=O)c2ccc(C)cc2)CN(C)C1=O	–	6.21 µM	–	15.3 µM	–	7.97 µM	–	11.5 µM	–	16.7 µM	–	> 100 µM	–	62.7 µM	–	20.3 µM	–	17.5 µM	–	14.3 µM
CNC(=O)OCc1c(COC(=O)NC)c(C)n(-c2ccc(Br)cc2)c1C	–	36.3 µM	–	38.1 µM	–	51.5 µM	–	32.2 µM	–	36.2 µM	–	> 100 µM	–	4.59 µM	–	24.8 µM	–	23.9 µM	–	30.8 µM
C/C(=N\Nc1ccc2ccccc2n1)c1ccccn1	0.0756 µM	2.15 µM	0.0841 µM	11.1 µM	0.197 µM	16.1 µM	0.133 µM	2.51 µM	0.107 µM	5.25 µM	< 0.0335 µM	2.38 µM	0.134 µM	2.12 µM	< 0.0492 µM	12.8 µM	0.0627 µM	1.42 µM	0.115 µM	9.12 µM
COc1cccc(C=Nc2cc(C)ccn2)c1O.COc1cccc(C=Nc2cc(C)ccn2)c1O.[Cu]	16.6 µM	31.7 µM	27.8 µM	90.1 µM	19.8 µM	42 µM	16.2 µM	37.9 µM	19.3 µM	41.6 µM	18.6 µM	> 100 µM	9.25 µM	27.2 µM	20.4 µM	64.4 µM	8.53 µM	30.9 µM	18.5 µM	52.5 µM
COc1ccc(-c2cc(-c3ccccc3)nc(SCCCC(=O)NO)n2)cc1	1 µM	4.82 µM	1.74 µM	8.45 µM	0.369 µM	9.63 µM	1.7 µM	3.81 µM	1.06 µM	9.58 µM	0.363 µM	> 33.3 µM	1.68 µM	6.08 µM	0.389 µM	19.8 µM	0.24 µM	1.95 µM	1.72 µM	5.29 µM
CC(C)(C)c1n[nH]c(=S)n(/N=C/c2ccc(F)c(Oc3ccccc3)c2)c1=O	28.5 µM	91.5 µM	33.9 µM	> 100 µM	22.2 µM	91.4 µM	33.2 µM	> 100 µM	67.7 µM	> 100 µM	> 100 µM	> 100 µM	> 100 µM	> 100 µM	25.6 µM	> 100 µM	28.7 µM	72.2 µM	35.9 µM	> 100 µM
C=CC(=O)N1CCN(c2ccc3cccc(NC(=O)c4cnc(C)cn4)c3n2)CC1	2.89 µM	15.9 µM	3.77 µM	> 100 µM	1.12 µM	> 100 µM	5.32 µM	23.6 µM	2.45 µM	> 100 µM	0.838 µM	12.7 µM	4.44 µM	22.3 µM	3.46 µM	> 100 µM	5.14 µM	21.4 µM	2.84 µM	19 µM
COC(=O)Cn1c2c(c3c(O)cccc31)C(=O)c1ccccc1-2	> 100 µM	> 100 µM	> 100 µM	> 100 µM	45.4 µM	> 100 µM	> 100 µM	> 100 µM	> 100 µM	> 100 µM	28.8 µM	> 100 µM	> 100 µM	> 100 µM	> 100 µM	> 100 µM	> 100 µM	> 100 µM	> 100 µM	> 100 µM
O=C(N/N=C/c1ccc2c(c1)CCC2)c1ccccc1O	–	61.5 µM	–	57.5 µM	–	51.1 µM	–	28.3 µM	–	> 100 µM	–	> 100 µM	–	77.7 µM	–	71.9 µM	–	> 100 µM	–	50.7 µM
N#C/C(=C\c1c(-c2ccccc2)[nH]c2ccccc12)S(=O)(=O)c1ccccc1	6.77 µM	> 55.8 µM	3.74 µM	> 100 µM	5.08 µM	> 54.3 µM	10.9 µM	34.3 µM	2.4 µM	20.1 µM	17.3 µM	> 100 µM	4.06 µM	37.8 µM	5.82 µM	> 78 µM	4.47 µM	25.5 µM	0.625 µM	13.9 µM
CCCn1c(C)nc2c1C(=O)c1ccccc1C2=O	2.71 µM	9.35 µM	28.5 µM	> 100 µM	65.2 µM	> 100 µM	50.2 µM	> 100 µM	23.5 µM	> 100 µM	15.1 µM	79.4 µM	57.3 µM	> 100 µM	31.8 µM	> 100 µM	22.9 µM	> 100 µM	32.2 µM	> 100 µM
Cc1ccc(-c2cc(-c3ccc(C)cc3)nc(NCCNc3ccnc4cc(Cl)ccc34)n2)cc1	1.82 µM	3.52 µM	1.74 µM	3.53 µM	1.78 µM	3.47 µM	1.76 µM	3.28 µM	1.81 µM	3.31 µM	0.623 µM	> 100 µM	1.8 µM	4.18 µM	1.88 µM	3.88 µM	1.83 µM	3.71 µM	1.75 µM	3.38 µM
COc1ccc(-c2n[nH]nc2-c2cc(OC)c3c(c2OC)OCO3)cc1	1.34 µM	> 100 µM	0.7 µM	> 58.8 µM	4.85 µM	79.8 µM	1.7 µM	19.3 µM	1.61 µM	13.6 µM	0.299 µM	22.6 µM	9.69 µM	> 92.6 µM	2.02 µM	> 69 µM	0.746 µM	19 µM	0.426 µM	44.7 µM
O=C(/C(=C/c1ccccc1)CN1CCCCC1)c1ccccc1	1.16 µM	3.58 µM	1.84 µM	3.92 µM	0.662 µM	1.74 µM	1.68 µM	3.11 µM	1.52 µM	5.78 µM	0.271 µM	5.78 µM	1.53 µM	3.82 µM	0.616 µM	4.29 µM	0.364 µM	1.5 µM	2.09 µM	6.88 µM
O=C(c1ccccc1)C(CN1CCOCC1)c1ccccc1 (stereo not given)	1.79 µM	4.03 µM	3.94 µM	14.9 µM	1.19 µM	2.44 µM	4.36 µM	15.6 µM	1.16 µM	2.44 µM	1.02 µM	4.45 µM	2.79 µM	9.33 µM	1.52 µM	3.22 µM	1.32 µM	3.19 µM	1.8 µM	3.73 µM
O=S(=O)(NCCNC/C=C/c1ccc(Br)cc1)c1cccc2cnccc12	7.39 µM and 12.7 µM	23 µM and 26.9 µM	11.3 µM and 13.6 µM	24.9 µM and 27.4 µM	5.92 µM and 10.3 µM	19.6 µM and 23 µM	3.18 µM and 3.91 µM	10 µM and 14 µM	12.4 µM and 14.5 µM	25.1 µM and 27.6 µM	13.6 µM	> 40.9 µM and 34.6 µM	12.3 µM and 13.7 µM	30.7 µM and 34.5 µM	13 µM and 15.6 µM	28.5 µM and 32.3 µM	7.64 µM and 12.1 µM	25.6 µM and 25.2 µM	9.78 µM and 13.7 µM	23.3 µM and 28.8 µM
CN(C)CCCN1c2ccccc2CCc2ccc(Cl)cc21	2.03 µM	3.99 µM	9.27 µM	23.2 µM	13.3 µM	27.2 µM	1.8 µM	3.75 µM	10.8 µM	23.1 µM	2.08 µM	5.11 µM	7.22 µM	22.5 µM	8.23 µM	23.6 µM	2.31 µM	8.16 µM	3.77 µM	13.6 µM
Cc1ccc(C(=O)Nc2ccc(CN3CCN(C)CC3)c(C(F)(F)F)c2)cc1C#Cc1cnc2cccnn12	0.474 µM	2.86 µM	0.377 µM and 1.31 µM	1.55 µM and 3.79 µM	0.419 µM and 0.649 µM	1.37 µM and 2.88 µM	0.579 µM and 1.38 µM	1.86 µM and 4.05 µM	0.423 µM and 0.712 µM	1.57 µM and 3.72 µM	0.447 µM and 0.383 µM	2.11 µM and 1.98 µM	0.298 µM	4.41 µM	0.367 µM and 1.08 µM	1.46 µM and 3.75 µM	0.178 µM and 0.336 µM	0.973 µM and 1.16 µM	0.0455 µM and 0.131 µM	1.22 µM and 3.72 µM
